The values below come from US9952217B2, “Anti-HBc quantitative detection method and uses thereof in monitoring and controlling disease progression of chronic hepatitis B patient and in predicting therapeutic effect” (priority 2012, dated 2018).

This test deals with hepatitis B virus. Description: Adefovir dipivoxil therapy of HBeAg positive chronic hepatitis B patients (Cohort A). The format is in vivo, human. How it is done: Patient cohort A: 49 HBeAg positive patients, all patients accepted therapy of adefovir dipivoxil (10 mg/day), for 96 weeks in total, and were follow-up visited for 12 weeks after stop of therapy.
The above patients before therapy all met the criteria of disease adaptable for therapy as recommended by the Guide of Clinical Management of Chronic Hepatitis B of APASL: HBsAg was positive for consecutive 1 year or more, HBeAg was positive and anti-HBe was negative, serum ALT level was higher than 2 times of ULN; the patients were chosen to exclude possibility of having accompanied infection of hepatitis C virus (HCV), human immunodeficiency virus (HIV), hepatitis D virus (HDV), hepatitis E virus (HEV), and have no clinical medicine evidence of having accompanied autoimmune or metabolic liver diseases.
It was performed according to the method described in section 4.2 of Example 4.
It was performed according to the method described in section 4.3 of Example 4.
Main therapeutic end was defined when HBeAg seroconversion occurred at follow-up visit end.
All statistic methods were performed according to those described in Example 4.

With `CC(C)(C)C(=O)OCOP(=O)(COCCn1cnc2c(N)ncnc21)OCOC(=O)C(C)(C)C` [adefovir dipivoxil], for the setting “108 weeks versus therapy end (96 weeks)”, the “average increase (bounce) of serum anti-HBc level after therapy” value came to 0.29 log10 IU/ml. The “decrease of average HBV DNA level at follow-up end versus before therapy” value (HBc-High group (baseline anti-HBc ≥29000 IU/ml, n=16)) is 3.48±2.24 log10 copies/mL and the “decrease of average HBV DNA level at follow-up end versus before therapy” value (HBc-Low group (baseline anti-HBc <29000 IU/ml, n=33)) came to 1.69±2.05 log10 copies/mL. Where the note is “all 49 patients, 10 mg/day for 96 weeks, follow-up 12 weeks after stop”, the “therapeutic effective rate (HBeAg seroconversion at follow-up visit end)” value amounted to 18.4%. In addition, the “response rate (HBeAg seroconversion after therapy)” value is listed as 10.5% (baseline anti-HBc 9000-29000 IU/ml (n=19)) and 43.8% (baseline anti-HBc ≥29000 IU/ml, three-group analysis). The “patients with HBeAg seroconversion after therapy” value (baseline anti-HBc <9000 IU/ml (16 patients as printed)) was “none”. In addition, the “decline of average serum anti-HBc level per 12 weeks” value (baseline to 60 weeks after beginning of therapy) came to 0.20±0.05 log10 IU/mL. Besides, for the setting “cutoff 29000 IU/ml baseline anti-HBc”, the “ratio of occurrence rates (Risk Ratio, RR) of HBeAg seroconversion between high and low anti-HBc groups” value is reported as 7.22. Besides, the “effective rate (HBeAg seroconversion at follow-up visit end)” value is, setting by setting: (patients with baseline anti-HBc greater than 29000 IU/ml (n=16)) 43.8%; (patients with baseline anti-HBc less than 29000 IU/ml (n=33)) 6.1%.
